Common to all, as to format: cell-based
The subject of experiment [1] is L. infantum promastigotes. As to the kind of experiment: Anti-Leishmania activity, resazurin-based assay. As to conditions: read-out: Anti-Parasitic Activity IC50 (µM) 95% CI, L. infantum Promastigotes. The method, then:
Promastigotes from the L. infantum strain (MHOM/MA/67/ITMAP-263) were grown in 5-mL T25 flasks in Schneider’s insect medium supplemented with 10% heat-inactivated fetal bovine serum (FBS), 200 U/mL penicillin/streptomycin, 6 µg/mL Phenol Red, and 5 mM HEPES. The cultures were maintained in an incubator at 27 °C and diluted to 2 × 10^5/mL every 5 days. For the assays, the parasites used were equivalent to late/log with 2 or 3 days of culture.
The compounds’ efficacy against L. infantum promastigotes was evaluated using a resazurin-based assay. Parasites were added to 100 µL of serial dilutions of compounds in supplemented complete medium at a cell density of 5 × 10^5/mL. As a quality control, a dose–response curve to the antileishmanial drug miltefosine was included in all the assays. The final volume of the assay was 200 µL/well. Each condition was carried out in duplicate. Following 72 h of incubation at the specific conditions for parasites, 20 µL of a 0.5 mM resazurin solution was added, and the plates were incubated for a further 4 h under the same conditions. Fluorescence was measured at 544 nm and 590 nm excitation and emission wavelengths, respectively, using a Synergy 2 Multi-Mode Reader (Biotek, Winooski, VT, USA). Results are shown as % of parasite growth inhibition compared to control (untreated parasites) and represent the average of at least three independent experiments. The effect was evaluated by the determination of the IC50 value (concentration required to inhibit growth in 50%) and was calculated by non-linear regression curves using GraphPad Prism software, version 8.1.1 for Windows (GraphPad Software, San Diego, CA, USA).
On the technique in general: Alamar Blue is a resazurin reagent that responds to reducing activity.

Experiment [2] concerns Aspergillus fumigatus ATCC 240305. As to the kind of experiment: Antifungal broth microdilution (CLSI M38-A2), MIC/MLC. As to conditions: for MIC: Aspergillus fumigatus, ATCC240305, broth microdilution, 16 to 512 µg/mL, 48 h at 36 °C. The method, then: (§1) All tested compounds (9a–9d, 10a–10c, 13, 14, and eugenol (1)) were prepared in DMSO (Sigma-Aldrich, St. Louis, MO, USA) at a concentration of 10 mg/mL. The reference drugs used (voriconazole (Sigma-Aldrich, St. Louis, MO, USA) for fungi and quality control; gentamicin (Sigma-Aldrich, St. Louis, MO, USA) for bacterial and quality control) were prepared at 6.4 mg/mL. The stock solutions of the compounds were stored at –20 °C until immediately before the assays and then were diluted in fresh culture medium, RPMI-1640 medium (Biochrom AG, Berlin, Germany) buffered with 3-(N-morpholino)propanesulfonic acid (MOPS—Sigma-Aldrich, St. Louis, MO, USA) for fungi and cation-adjusted Mueller–Hinton broth (MHBII—Becton Dickinson, France) for bacteria, henceforth referred to as RPMI and MHB, respectively.
(§2) Fungal strains, including reference strains and clinical isolates, were used for the study of the antifungal activity: a yeast reference strain from American Type Culture Collection (ATCC), Candida albicans ATCC 10231; filamentous fungi reference strain Aspergillus fumigatus ATCC 240305; and a clinical isolate of dermatophytes Trichophyton rubrum FF5. Candida krusei ATCC 6258 was used as a quality control. All fungal strains were stored in Sabouraud dextrose broth (SDB—Bio-Mèrieux, Marcy L’Etoile, France) with glycerol (20%) at −80 °C and were subcultured in Sabouraud dextrose agar (SDA—Bio-Mèrieux, Marcy L’Etoile, France) for 24–72 h (yeasts and A. fumigatus) or 5–7 days (T. rubrum) before each assay to obtain optimal growth and purity conditions. Two bacteria strains were used, one Gram positive and one Gram negative: Staphylococcus aureus ATCC 25923 and Escherichia coli ATCC 25922, respectively. The bacterial strains were stored in trypticase soy broth (TSB—Biolife, Milan, Italy) with glycerol (10%) at −80 °C and subcultured in Mueller–Hinton agar (MHA—Bio-Mèrieux, Marcy L’Etoile, France) for 24 h before each assay.
(§3) For the purpose of quantitatively measuring the antifungal activity in vitro, a broth microdilution method was used to determine the MICs using the CLSI reference protocols M27-A3 [27] for yeasts and M38-A2 [28] for filamentous fungi. In short, two-fold serial dilutions of each stock solution were prepared using RPMI medium (pH 7) to obtain a range of test concentrations from 16 to 512 μg/mL. The yeasts or spore suspensions were prepared from 24 to 72-h cultures (yeasts and Aspergillus) or from 5–7 days of cultures (dermatophyte) in saline solution (with a drop of Tween 20 for the filamentous fungi). The transmittance of the cell density of yeasts was adjusted to 0.5 McFarland standard, and for filamentous fungi, the spores were counted using a Neubauer camera. Dilutions were performed using RPMI to obtain cell final concentrations in the plate of 0.5–2.5 × 10^3 colony forming units (CFU)/mL for yeasts, 0.4–5 × 10^4 CFU/mL for Aspergillus, and 1–3 × 10^3 CFU/mL for dermatophytes. Plates with the prepared serial dilutions of the tested compounds were inoculated with the same volume of the fungal suspension, and sterility (wells with only culture medium), growth (wells with cell suspensions in culture medium), and DMSO controls (wells with cell suspensions in culture medium containing 1% DMSO) were included in each assay. […] For the tested compounds, MIC values were considered the minimum concentration that inhibited the yeast growth by 100% compared to the growth control. The reference drug, voriconazole, was tested against C. krusei ATCC 6258 as a quality control, and the results were within the limits of CLSI reference documents.
(§4) After MIC readings, 10 μL of suspension were collected from wells corresponding to the MIC and the highest concentration following the MIC and were deposited in SDA plates. The plates were incubated following the conditions previously mentioned for the MIC evaluation, and the MLC was determined as the lowest concentration at which no fungal growth is observed.
In general terms: In broth dilution the organism is exposed to a series of concentrations in liquid medium.

For experiment [3], the system named is Trichophyton rubrum FF5. Described as above. As to conditions: for MIC: Trichophyton rubrum, FF5, broth microdilution, read-out: MIC T. rubrum; for MIC / MIC T. rubrum: 16 to 512 µg/mL, 5–7 days at 26 °C; for MIC T. rubrum: broth microdilution; for MLC T. rubrum: minimum lethal concentration, subculture on SDA after MIC reading. On the procedure: as §1, §2, §3, §4

Where [4] appears, read: 72 h incubation, resazurin, highest concentration tested 40 µM, 95% CI in parentheses.

The structures appear in SMILES notation. Values after ≈ are worked out from the molar mass of the structure shown. Like-named read-outs stand apart in the source and are kept apart here. Some results are limits rather than exact numbers.

Usually IC50 stands for the concentration that gives 50% inhibition. One may read the MIC as the lowest concentration found to suppress growth. For the compound `C=CCc1ccc(OCc2cn(CC(=O)Nc3ccccc3C(=O)O)nn2)c(OC)c1` [compound 13, 2-(2-(4-((4-allyl-2-methoxyphenoxy)methyl)-1H-1,2,3-triazol-1-yl)acetamido) benzoic acid], the concentration for half-maximal inhibition (IC50) in experiment [1] (setting [4]) is greater than 40 µM. Further, the minimal inhibitory concentration (MIC) in experiment [2] and in experiment [3] was greater than 512 µg/mL in each case.
As for `C=CCc1cc(Cn2cc(C(=O)Nc3ccc(Cl)cc3C(N)=O)nn2)c(O)c(OC)c1` [9d, 1-(5-allyl-2-hydroxy-3-methoxybenzyl)-N-(2-carbamoyl-4-chlorophenyl)-1H-1,2,3-triazole-4-carboxamide], the IC50 in experiment [1] (setting [4]) is greater than 40 µM. In experiment [2], the MIC was greater than 512 µg/mL. In experiment [3], the minimum inhibitory concentration (MIC) was 512 µg/mL (≈ 1160 µM), the “MIC T. rubrum” value fell in the range of 256 to 512 µg/mL and the “MLC T. rubrum” value is on record as greater than 512 µg/mL.
For the compound `C=CCc1cc(Cn2cc(-c3nc4ccc(F)cc4c(=O)[nH]3)nn2)c(O)c(OC)c1` [10c, 2-(1-(5-allyl-2-hydroxy-3-methoxybenzyl)-1H-1,2,3-triazol-4-yl)-6-fluoroquinazolin-4(3H)-one], in experiment [1] (setting [4]), the IC50 is greater than 40 µM. Moreover, in experiment [2], the MIC is greater than 512 µg/mL. In addition, in experiment [3], the MIC was found to be 512 µg/mL (≈ 1260 µM), the “MIC T. rubrum” value is 256 to 512 µg/mL and the “MLC T. rubrum” value is reported as greater than 512 µg/mL.
For `C=CCc1cc(Cn2cc(-c3nc4ccccc4c(=O)[nH]3)nn2)c(O)c(OC)c1` [10a, 2-(1-(5-allyl-2-hydroxy-3-methoxybenzyl)-1H-1,2,3-triazol-4-yl)quinazolin-4(3H)-one], in experiment [1] (setting [4]), the IC50 is greater than 40 µM. Further, the minimum inhibitory concentration (MIC) in experiment [2] was greater than 512 µg/mL. Moreover, in experiment [3], the minimal inhibitory concentration (MIC) worked out at 512 µg/mL (≈ 1310 µM), the “MIC T. rubrum” value is given as 256 to 512 µg/mL and the “MLC T. rubrum” value is greater than 512 µg/mL.
For `C=CCc1cc(Cn2cc(C(=O)Nc3ccccc3C(N)=O)nn2)c(O)c(OC)c1` [9a, 1-(5-allyl-2-hydroxy-3-methoxybenzyl)-N-(2-carbamoylphenyl)-1H-1,2,3-triazole-4-carboxamide], in experiment [1] (setting [4]), the IC50 was greater than 40 µM. Also, in experiment [2], the MIC was greater than 512 µg/mL. In experiment [3], the MIC is 512 µg/mL (≈ 1260 µM), the “MIC T. rubrum” value fell in the range of 256 to 512 µg/mL and the “MLC T. rubrum” value is greater than 512 µg/mL.
Consider `C=CCc1cc(Cn2cc(C(=O)Nc3ccc(F)cc3C(N)=O)nn2)c(O)c(OC)c1` [9c, 1-(5-allyl-2-hydroxy-3-methoxybenzyl)-N-(2-carbamoyl-4-fluorophenyl)-1H-1,2,3-triazole-4-carboxamide], for which the IC50 in experiment [1] (setting [4]) was found to be 7.54 µM. Besides, the minimal inhibitory concentration (MIC) in experiment [2] and in experiment [3] was greater than 512 µg/mL each time.
As to `C=CCc1cc(Cn2cc(-c3nc4ccccc4c(=O)o3)nn2)c(O)c(OC)c1` [compound 14, 2-(1-(5-allyl-2-hydroxy-3-methoxybenzyl)-1H-1,2,3-triazol-4-yl)-4H-benzo[d][1,3]oxazin-4-one], the IC50 in experiment [1] (setting [4]) was greater than 40 µM. Moreover, in experiment [2], the MIC was greater than 512 µg/mL. Further, in experiment [3], the MIC is 256 to 512 µg/mL (≈ 656 to 1310 µM), the “MIC T. rubrum” value was 256 to 512 µg/mL and the “MLC T. rubrum” value is greater than 512 µg/mL.
Consider `C=CCc1cc(Cn2cc(C(=O)Nc3ccc(OC)cc3C(N)=O)nn2)c(O)c(OC)c1` [9b, 1-(5-allyl-2-hydroxy-3-methoxybenzyl)-N-(2-carbamoyl-4-methoxyphenyl)-1H-1,2,3-triazole-4-carboxamide], for which the IC50 in experiment [1] (setting [4]) is greater than 40 µM. Moreover, the MIC in experiment [2] and in experiment [3] was greater than 512 µg/mL each time.
`C=CCc1ccc(O)c(OC)c1` [Eugenol, eugenol, reference compound]: the IC50 in experiment [1] (72 h) was greater than 40 µM. Also, the figures for the minimum inhibitory concentration (MIC) in experiment [2] and in experiment [3] were 512 µg/mL (≈ 3120 µM) and 256 µg/mL (≈ 1560 µM), respectively. In addition, the “MLC A. fumigatus” value in experiment [2] (minimum lethal concentration, subculture on SDA after MIC reading) was greater than 512 µg/mL.
On to `C=CCc1cc(Cn2cc(-c3nc4ccc(OC)cc4c(=O)[nH]3)nn2)c(O)c(OC)c1` [10b, 2-(1-(5-allyl-2-hydroxy-3-methoxybenzyl)-1H-1,2,3-triazol-4-yl)-6-methoxyquinazolin-4(3H)-one], for which the IC50 in experiment [1] (setting [4]) is greater than 40 µM. In addition, the minimal inhibitory concentration (MIC) in experiment [2] and in experiment [3] was greater than 512 µg/mL each time.
